≈ marks a conversion by molar mass, not a printed value. Read-outs that look alike come from different tables or passages of the source.
Legend:
Test in all cases: In-vitro antimicrobial activity primary screen (agar dilution MIC)
Assay type in all cases: cell-based
[1] = system: Staphylococcus aureus CMX 686B; settings: CMX686B, BHI agar, 20-24 h, read-out: MIC
Procedure: (§1) The antimicrobial spectra of several of the compounds of the present invention were tested as described below.
(§2) Twelve petri dishes containing successive aqueous dilutions of the test compounds, mixed with 10 mL of sterilized Brain Heart Infusion (BHI) agar (Difco 0418-01-5), were prepared. Each plate was inoculated with 1:100 (or 1:10 for slow growing strains (primarily Micrococcus and Streptococcus) dilutions of up to 32 different microorganisms, using a Steers replicator block. The inoculated plates were incubated at 35 37° C. for 20-24 hours. In addition, a control plate, using BHI agar containing no test compound, was prepared and incubated at the beginning and the end of each test.
(§3) An additional plate containing a compound having known susceptibility patterns for the organisms being tested and belonging to the same antibiotic class as the test compounds was also prepared and incubated as a further control, as well as to provide test-to test comparability. Erythromycin A was used for this purpose.
(§4) After incubation, each plate was read. The MIC (minimum inhibitory concentration) is defined as the lowest concentration of test compound yielding no growth, a slight haze, or sparsely isolated colonies on the inoculum spot as compared to the growth control containing no test compound.

[2] = system: Staphylococcus aureus CMX 553; settings: Staphylococcus aureus, CMX553, 24 h, BHI agar, 20-24 h, read-out: MIC
Procedure: as §1, §2, §3, §4

[3] = system: Staphylococcus aureus CMX 503A; settings: Staphylococcus aureus, CMX503A, 24 h, BHI agar, 20-24 h, read-out: MIC
Procedure: as §1, §2, §3, §4

[4] = system: Pseudomonas aeruginosa K799/WT; settings: Pseudomonas aeruginosa K799/WT; BHI agar, 20-24 h; read-out: MIC
Procedure: as §1, §2
(§5) An additional plate containing a compound having known susceptibility patterns for the organisms being tested and belonging to the same antibiotic class as the test compounds was also prepared and incubated as a further control, as well as to provide test-to test comparability.
as §4

[5] = system: Staphylococcus aureus ATCC 6538P; settings: Staphylococcus aureus, ATCC6538P, 24 h, BHI agar, 20-24 h
Procedure: as §1, §2, §5, §4

Escherichia coli DC-2 = settings: DC2; Escherichia coli DC-2; BHI agar, 20-24 h; read-out: MIC
Procedure: as §1, §2, §5, §4

Escherichia coli H560 = settings: Escherichia coli H560; BHI agar, 20-24 h; read-out: MIC
Procedure: as §1, §2, §5, §4

[6] = system: Enterobacter aerogenes ATCC 13048; settings: Klebsiella aerogenes, ATCC13048; Enterobacter aerogenes ATCC 13048; BHI agar, 20-24 h; read-out: MIC
Procedure: as §1, §2, §5, §4

[7] = system: Staphylococcus aureus A5177; settings: Staphylococcus aureus A5177, BHI agar, 20-24 h
Procedure: as §1, §2, §5, §4

[8] = system: Pseudomonas aeruginosa K799/61
Procedure: as §1, §2, §5, §4

[9] = system: Pseudomonas aeruginosa BMH10; settings: BHI agar, 20-24 h, read-out: MIC
Procedure: as §1, §2, §5, §4

[10] = system: Providencia stuartii CMX 640; settings: CMX640; Providencia stuartii CMX 640; BHI agar, 20-24 h; read-out: MIC
Procedure: as §1, §2, §5, §4

[11] = system: Klebsiella pneumoniae ATCC 8045; settings: ATCC8045; Klebsiella pneumoniae ATCC 8045; BHI agar, 20-24 h; read-out: MIC
Procedure: as §1, §2, §5, §4

Pseudomonas cepacia 2961 = settings: Burkholderia cepacia, BHI agar, 20-24 h, read-out: MIC
Procedure: as §1, §2, §5, §4

Staphylococcus aureus 45 = settings: BHI agar, 20-24 h
Procedure: as §1, §2, §5, §4

[12] = system: Staphylococcus aureus 45 RAR2; settings: Staphylococcus aureus, 45RAR2, 24 h, BHI agar, 20-24 h
Procedure: as §1, §2, §5, §4

[13] = system: Streptococcus agalactiae CMX 508; settings: 20-24 h
Procedure: as §1, §2, §5, §4

[14] = system: Enterococcus faecium ATCC 8043
Procedure: as §1, §2, §5, §4

[15] = system: Streptococcus pyrogenes 2548 INDUC; settings: BHI agar, 20-24 h
Procedure: as §1, §2, §5, §4

[16] = system: Staphylococcus epidermidis 3519; settings: Staphylococcus epidermidis, 3519, 24 h, BHI agar, 20-24 h
Procedure: as §1, §2, §5, §4

Acinetobacter SP CMX 669 = settings: SPCMX669; Acinetobacter SP CMX 669; BHI agar, 20-24 h; read-out: MIC
Procedure: as §1, §2, §5, §4

[17] = system: Streptococcus pyrogenes EES61; settings: BHI agar, 20-24 h, read-out: MIC
Procedure: as §1, §2, §5, §4

[18] = system: Streptococcus bovis A5169; settings: Streptococcus equinus, BHI agar, 20-24 h
Procedure: as §1, §2, §5, §4

[19] = system: Micrococcus luteus ATCC 9341; settings: 20-24 h
Procedure: as §1, §2, §5, §4

[20] = system: Micrococcus luteus ATCC 4698; settings: 20-24 h
Procedure: as §1, §2, §5, §4

Escherichia coli SS = settings: BHI agar, 20-24 h
Procedure: as §1, §2, §5, §4

[21] = system: Pseudomonas aeruginosa A5007; settings: Pseudomonas aeruginosa A5007; BHI agar, 20-24 h; read-out: MIC
Procedure: as §1, §2, §5, §4

Escherichia coli JUHL = settings: Escherichia coli JUHL; BHI agar, 20-24 h; read-out: MIC
Procedure: as §1, §2, §5, §4

Compound | MIC [1] [µg/mL] | MIC [2] [µg/mL] | MIC [3] [µg/mL] | MIC [4] [µg/mL] | MIC [5] [µg/mL] | MIC (Escherichia coli DC-2) [µg/mL] | MIC (Escherichia coli H560) [µg/mL] | MIC [6] [µg/mL] | MIC [9] [µg/mL] | MIC [10] [µg/mL] | MIC [11] [µg/mL] | MIC (Pseudomonas cepacia 2961) [µg/mL] | MIC [12] [µg/mL] | MIC [16] [µg/mL] | MIC (Acinetobacter SP CMX 669) [µg/mL] | MIC [17] [µg/mL] | MIC [21] [µg/mL] | MIC (Escherichia coli JUHL) [µg/mL] | further results
CC[C@H]1OC(=O)[C@H](C)[C@@H](O[C@H]2C[C@@](C)(OC)[C@H](NC(C)=O)[C@H](C)O2)[C@H](C)[C@@H](O[C@@H]2O[C@H](C)C[C@H](N(C)C)[C@H]2O)[C@](C)(O)C[C@@H](C)[C@@H]2O[C@@]1(C)C(=O)[C@H]2C [Example 10, (4"R,9S) 4"-Acetylamino-9-deoxo-4",11,12-trideoxy-9,12-epoxy-11-oxoerythromycin A] | 0.39 (≈ 0.515 µM) | 0.39 (≈ 0.515 µM) | 0.39 (≈ 0.515 µM) | > 100 | 0.39 (≈ 0.515 µM) | > 100 | 100 (≈ 132 µM) | > 100 | > 100 | > 100 | > 100 | > 100 | 0.39 (≈ 0.515 µM) | 0.39 (≈ 0.515 µM) | 50 (≈ 66.1 µM) | 0.02 (≈ 0.0264 µM) | > 100 | > 100 | MIC ([7]; read-out: MIC): 0.39 µg/mL (≈ 0.515 µM); MIC ([8]; Pseudomonas aeruginosa K799/61, BHI agar, 20-24 h, read-out: MIC): 1.56 µg/mL (≈ 2.06 µM); MIC (Staphylococcus aureus 45; read-out: MIC): 0.39 µg/mL (≈ 0.515 µM); MIC ([13]; Streptococcus agalactiae, CMX508, 24 h, BHI agar): 0.1 µg/mL (≈ 0.132 µM); MIC ([14]; Enterococcus faecium, ATCC8043, 24 h): 0.2 µg/mL (≈ 0.264 µM); MIC ([15]; read-out: MIC): 0.78 µg/mL (≈ 1.03 µM); MIC ([18]; A5169, 24 h): 0.2 µg/mL (≈ 0.264 µM); MIC ([19]; ATCC9341, BHI agar, read-out: MIC): 0.05 µg/mL (≈ 0.0661 µM); MIC ([20]; Micrococcus luteus, ATCC4698, 24 h, BHI agar): 0.2 µg/mL (≈ 0.264 µM); MIC (Escherichia coli SS; read-out: MIC): 0.39 µg/mL (≈ 0.515 µM)
CC[C@H]1OC(=O)[C@H](C)[C@@H](O[C@H]2C[C@@](C)(OC)[C@@H](NS(C)(=O)=O)[C@H](C)O2)[C@H](C)[C@@H](O[C@@H]2O[C@H](C)C[C@H](N(C)C)[C@H]2O)[C@](C)(O)C[C@@H](C)[C@@H]2O[C@@]1(C)C(=O)[C@H]2C [Example 16, (4"S,9S)-9-Deoxo-4",11,12-trideoxy-9,12-epoxy-4"-(methylsulfonyl)amino-11-oxerythromycin A] | 0.39 (≈ 0.492 µM) | 0.39 (≈ 0.492 µM) | 0.39 (≈ 0.492 µM) | 100 (≈ 126 µM) | 0.39 (≈ 0.492 µM) | > 100 | > 100 | > 100 | 100 (≈ 126 µM) | > 100 | > 100 | > 100 | 0.78 (≈ 0.984 µM) | 0.39 (≈ 0.492 µM) | 50 (≈ 63 µM) | < 0.005 | > 100 | > 100 | MIC ([7]; Staphylococcus aureus, A5177, 24 h): 0.39 µg/mL (≈ 0.492 µM); MIC ([8]; Pseudomonas aeruginosa, K799/61, 24 h): 3.1 µg/mL (≈ 3.91 µM); MIC (Staphylococcus aureus 45; Staphylococcus aureus, 45, 24 h): 0.39 µg/mL (≈ 0.492 µM); MIC ([13]; CMX508, BHI agar, read-out: MIC): 0.02 µg/mL (≈ 0.0252 µM); MIC ([14]; ATCC8043, Enterococcus faecium ATCC 8043, BHI agar, 20-24 h, read-out: MIC): 0.05 µg/mL (≈ 0.063 µM); MIC ([15]; Streptococcus, 2548INDUC, 24 h): 3.1 µg/mL (≈ 3.91 µM); MIC ([18]; read-out: MIC): < 0.005 µg/mL; MIC ([19]; Micrococcus luteus, ATCC9341, 24 h, BHI agar): 0.02 µg/mL (≈ 0.0252 µM); MIC ([20]; ATCC4698, BHI agar, read-out: MIC): 0.05 µg/mL (≈ 0.063 µM); MIC (Escherichia coli SS; Escherichia coli, 24 h): 0.39 µg/mL (≈ 0.492 µM)
